Patent US20250206721A1, “Prostaglandin Receptor EP2 Antagonists, Derivatives, and Uses Related Thereto” (Emory University, priority 2019, published 2025)
In brackets after ≈: the same amount, converted by molar mass. Marks after values point to notes of the source that are not given here.

Key:
[1] = Kinetic aqueous solubility in PBS by nephelometry; conditions: for Aqueous Solubility: PBS buffer (pH 7.4) with 1% DMSO, nephelometry
human EP2 receptor = molecular target: T1, human EP2 receptor (Homo sapiens, UniProt P43116); experiment: Cell-based cAMP TR-FRET assay, Schild KB on EP2; conditions: for Kb / EP2 KB: Schild KB, agonist PGE2, antagonist concentration 1 μM, C6G cells expressing human EP2; for fold less EP2 potency in comparison to 2a: comparator 2a; for fold less potent than equivalent derivative: 11a vs 8b, 11b vs 8g, 11c vs 8f
T1 construct: expressed in transfected cells

[2] = pH 2

T1 sequence (P43116 whole entry): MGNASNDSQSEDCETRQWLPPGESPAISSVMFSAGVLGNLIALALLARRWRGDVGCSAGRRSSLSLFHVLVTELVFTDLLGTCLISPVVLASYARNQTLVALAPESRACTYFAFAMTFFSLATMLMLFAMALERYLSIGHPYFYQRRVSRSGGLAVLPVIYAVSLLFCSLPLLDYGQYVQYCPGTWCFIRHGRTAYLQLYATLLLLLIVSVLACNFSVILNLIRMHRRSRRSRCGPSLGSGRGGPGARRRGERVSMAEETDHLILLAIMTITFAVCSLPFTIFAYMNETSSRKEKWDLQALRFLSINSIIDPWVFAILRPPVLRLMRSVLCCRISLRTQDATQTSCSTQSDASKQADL

Structure (SMILES)	Aqueous Solubility [1]	Solubility in SGF [2]	other results
Cc1[nH]c2ccccc2c1CCNC(=O)c1ccc(N2CCOCC2)nc1 [Compound 2b, N-(2-(2-Methyl-1H-indol-3-yl)ethyl)-6-morpholinonicotinamide]	206 µM		fold increased aqueous solubility ([1]; comparator 2a): 3 fold; Kb (human EP2 receptor): 118 nM; fold less EP2 potency in comparison to 2a (human EP2 receptor): 4 fold
Cc1[nH]c2ccccc2c1CCNC(=O)c1ccc(-c2ccccc2)nc1 [Compound 8a, N-(2-(2-Methyl-1H-indol-3-yl)ethyl)-6-phenylnicotinamide]	25 µM	>100 µM	
COc1cccc(-c2ccc(C(=O)NCCc3c(C)[nH]c4ccccc34)cn2)c1 [Compound 8b, 6-(3-Methoxyphenyl)-N-(2-(2-methyl-1H-indol-3-yl)ethyl)nicotinamide]	13 µM	>100 µM	
Cc1[nH]c2ccccc2c1CCNC(=O)c1ccc(-c2ccccc2O)nc1 [Compound 8d, 6-(2-Hydroxyphenyl)-N-(2-(2-methyl-1H-indol-3-yl)ethyl)nicotinamide]	8 µM	50^c μM	
Cc1[nH]c2ccccc2c1CCNC(=O)c1ccc(-c2ccccc2F)nc1 [Compound 8e, 6-(2-Fluorophenyl)-N-(2-(2-methyl-1H-indol-3-yl)ethyl)nicotinamide]	22 µM	>100 µM	fold less EP2 potency in comparison to 2a (human EP2 receptor): 2 fold; fold less EP2 potency in comparison to 8c (human EP2 receptor; comparator 8c (14b vs. 14c or 8c)): 4 fold
CC(=O)Nc1ccc(-c2ccc(C(=O)NCCc3c(C)[nH]c4ccccc34)cn2)cc1 [Compound 8f, 6-(4-Acetamidophenyl)-N-(2-(2-methyl-1H-indol-3-yl)ethyl)nicotinamide]	25 µM	>100 µM	
COc1cccc(-c2ccc(C(=O)NCCc3c(C)[nH]c4ccccc34)nc2)c1 [Compound 11a, 5-(3-Methoxyphenyl)-N-(2-(2-methyl-1H-indol-3-yl)ethyl)picolinamide]	14 µM	14 µM (≈ 5.4 µg/mL)	fold less potent than equivalent derivative (human EP2 receptor): 4 fold
COc1cc(OC)cc(-c2ccc(C(=O)NCCc3c(C)[nH]c4ccccc34)nc2)c1 [Compound 11b, 5-(3,5-Dimethoxyphenyl)-N-(2-(2-methyl-1H-indol-3-yl)ethyl)picolinamide]	10 µM	10 µM (≈ 4.15 µg/mL)	fold less potent than equivalent derivative (human EP2 receptor): 11 fold
CC(=O)Nc1ccc(-c2ccc(C(=O)NCCc3c(C)[nH]c4ccccc34)nc2)cc1 [Compound 11c, 5-(4-Acetamidophenyl)-N-(2-(2-methyl-1H-indol-3-yl)ethyl)picolinamide]	10 µM	10 µM (≈ 4.12 µg/mL)	
COc1ccccc1-c1ccc(C(=O)NCCc2c(C)[nH]c3ccccc23)cc1F [Compound 14b, 2-Fluoro-2′-methoxy-N-(2-(2-methyl-1H-indol-3-yl)ethyl)-[1,1′-biphenyl]-4-carboxamide]	10 µM	10^d μM	
COc1ccccc1-c1ccc(C(=O)NCCc2c(C)[nH]c3ccccc23)cc1 [Compound 14c, 2′-Methoxy-N-(2-(2-methyl-1H-indol-3-yl)ethyl)-[1,1′-biphenyl]-4-carboxamide]	5 µM		
Cc1[nH]c2ccccc2c1CCNC(=O)c1cnc(Nc2cc(C(C)(C)C)ccn2)nc1 [Compound 20d, 2-((4-(tert-Butyl)pyridin-2-yl)amino)-N-(2-(2-methyl-1H-indol-3-yl)ethyl)pyrimidine-5-carboxamide]	5 µM		
Cc1[nH]c2ccccc2c1CCNC(=O)c1cnc(Nc2cccc(C#N)n2)nc1 [Compound 20g, 2-((6-Cyanopyridin-2-yl)amino)-N-(2-(2-methyl-1H-indol-3-yl)ethyl)pyrimidine-5-carboxamide]	13 µM		
Cc1[nH]c2ccccc2c1CCNC(=O)c1cnc(Nc2cccc(O)n2)nc1 [Compound 20i, 2-((6-Hydroxypyridin-2-yl)amino)-N-(2-(2-methyl-1H-indol-3-yl)ethyl)pyrimidine-5-carboxamide]	10 µM		
CC(=O)c1cccc(Nc2ncc(C(=O)NCCc3c(C)[nH]c4ccccc34)cn2)n1 [Compound 20j, 2-((6-Acetylpyridin-2-yl)amino)-N-(2-(2-methyl-1H-indol-3-yl)ethyl)pyrimidine-5-carboxamide]	5 µM		
CC(=O)c1ccc(Nc2ncc(C(=O)NCCc3c(C)[nH]c4ccccc34)cn2)nc1 [Compound 20l, 2-((5-Acetylpyridin-2-yl)amino)-N-(2-(2-methyl-1H-indol-3-yl)ethyl)pyrimidine-5-carboxamide]			Kb (human EP2 receptor): 166 nM; fold reduced EP2 potency in comparison to 20b (human EP2 receptor; comparator 20b): 20 fold
CCC(C)(O)c1cccc(Nc2ncc(C(=O)NCCc3c(C)[nH]c4ccccc34)cn2)n1 (stereo not shown) [Compound 20m, 2-((6-(2-Hydroxybutan-2-yl)pyridin-2-yl)amino)-N-(2-(2-methyl-1H-indol-3-yl)ethyl) pyrimidine-5-carboxamide]	6 µM		
Cc1[nH]c2ccccc2c1CCNC(=O)c1cnc(Nc2cccc(C(C)(C)C)n2)nc1 [Compound 20n, 2-((6-(tert-Butyl)pyridin-2-yl)amino)-N-(2-(2-methyl-1H-indol-3-yl)ethyl)pyrimidine-5-carboxamide]	25 µM		
Cc1[nH]c2ccccc2c1CCNC(=O)c1cnc(Nc2ccncc2)nc1 [Compound 20p, N-(2-(2-Methyl-1H-indol-3-yl)ethyl)-2-(pyridin-4-ylamino)pyrimidine-5-carboxamide]	38 µM		EP2 KB (human EP2 receptor): complete loss of potency
Cc1ccc(Nc2ncc(C(=O)NCCc3c(C)[nH]c4ccccc34)cn2)c(C)n1 [Compound 20r, 2-((2,6-Dimethylpyridin-3-yl)amino)-N-(2-(2-methyl-1H-indol-3-yl)ethyl)pyrimidine-5-carboxamide]	100 µM		fold reduced EP2 potency (human EP2 receptor; 20f vs. 20c, 20n vs. 20e, comparator of 20g and 20r not stated): 10 fold; Kb (human EP2 receptor): 88.1 nM
COc1ccc2[nH]c(C)c(CCNC(=O)c3cnc(Nc4cc(C)cc(C)n4)nc3)c2c1 [Compound 24e, 2-((4,6-Dimethylpyridin-2-yl)amino)-N-(2-(5-methoxy-2-methyl-1H-indol-3-yl)ethyl)pyrimidine-5-carboxamide]	20 µM		
Cc1cc(C)nc(Nc2ncc(C(=O)NCCc3c(C(F)(F)F)[nH]c4ccccc34)cn2)c1 [Compound 24f, 2-((4,6-Dimethylpyridin-2-yl)amino)-N-(2-(2-(trifluoromethyl)-1H-indol-3-yl)ethyl)pyrimidine-5-carboxamide]	45 µM		Kb (human EP2 receptor): 66 nM; fold reduced EP2 potency in comparison to 20o (human EP2 receptor; comparator 20o): 8 fold
Cc1cc(C)nc(Nc2ncc(C(=O)NCCc3c(C)nn4ccccc34)cn2)c1 [Compound 24g, 2-((4,6-Dimethylpyridin-2-yl)amino)-N-(2-(2-methylpyrazolo[1,5-a]pyridin-3-yl)ethyl)pyrimidi-ne-5-carboxamide]	70 µM		
Cc1cc(C)nc(Nc2ncc(C(=O)NCC(=O)c3c(C)[nH]c4ccccc34)cn2)c1 [Compound 24h, 2-((4,6-Dimethylpyridin-2-yl)amino)-N-(2-(2-methyl-1H-indol-3-yl)-2-oxoethyl)pyrimidine-5-carboxamide]			EP2 KB (human EP2 receptor): eliminated the potency
